Tests used:
Akt phosphorylation = experiment: Akt Phosphorylation Assay (western blot), Panc-1; format: cell-based, human; details: at 10 μM, * = activation
Summary of the method: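 Phospho-Akt (Ser473) was measured by western blot in lysates of KRas G12D Panc-1 cells exposed to test compound for 6 h at 37 °C, either at 10 μM final with 0.3% DMSO or as serial dilutions for IC50. One format used overnight 0.5% FBS starvation followed by a 15 min pulse of 1.5 ng/ml EGF. The other used cells in 10% FBS with no stimulation.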

[1] = test system: Smad2/Smad3 phosphorylation; experiment: Phospho-Smad2/3 Inhibition Assay (western blot), Panc-1; format: cell-based, human; details: at 10 μM, Panc-1 pancreatic cancer cell line; starred symbols = activation
Summary of the method: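 Western blotting of lysates (15-50 μg protein) read phosphorylation of Smad2 Ser465/467 and Smad3 Ser423/425. Before lysis, Panc-1 cells got 1 h of 10 ng/ml TGF-b1 following 3 h compound exposure at 37° C (10 μM final, or serial dilutions for IC50, 0.3% DMSO) after overnight 0.5% FBS starvation.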

IL6 = experiment: IL-6 Quantification Assay (ELISA), LPS-stimulated RAW 264.7; format: cell-based; design: inhibition: dose or concentration left out as unconfirmed; details: Mus musculus, RAW264.7, read-out: IL-6: % inh.

COc1cccc(-c2cn3nc(-c4nccn4C)nc(N[C@H]4C[C@H](OC)C4)c3c2-c2ccccc2)c1F [Compound 42, 6-(2-Fluoro-3-methoxyphenyl)-N-((1r,3r)-3-methoxycyclobutyl)-2-(1-methyl-1H-imidazol-2-yl)-5-phenylpyrrolo[2,1-f][1,2,4]triazin-4-amine]
% inh of Akt phosphorylation in Panc-1 (Akt phosphorylation): D (85-100% inhibition)
% inh of Smad2/3 phosphorylation in Panc-1 [1]: 0 (0 = 0% inhibition)
inhibition (IL6): 75 to 100%

COCCO[C@H]1C[C@H](Nc2nc(-c3nccn3C)nn3cc(-c4cccc(OC)c4F)c(-c4ccccc4)c23)C1 [Compound 44, 6-(2-Fluoro-3-methoxyphenyl)-N-((1r,3r)-3-(2-methoxyethoxy)cyclobutyl)-2-(1-methyl-1H-imidazol-2-yl)-5-phenylpyrrolo[2,1-f][1,2,4]triazin-4-amine]
% inh of Akt phosphorylation in Panc-1 (Akt phosphorylation): B (26-49% inhibition)
% inh of Smad2/3 phosphorylation in Panc-1 [1]: D (D = 76-100% inhibition)
inhibition (IL6): 25 to 49%

COc1cccc(-c2cn3nc(-c4nccn4C)nc(N[C@H]4C[C@H](OC)C4)c3c2-c2ccccn2)c1F [Compound 45, 6-(2-Fluoro-3-methoxyphenyl)-N-((1r,3r)-3-methoxycyclobutyl)-2-(1-methyl-1H-imidazol-2-yl)-5-(pyridin-2-yl)pyrrolo[2,1-f][1,2,4]triazin-4-amine]
% inh of Akt phosphorylation in Panc-1 (Akt phosphorylation): 0 (0% inhibition)
% inh of Smad2/3 phosphorylation in Panc-1 [1]: 0 (0 = 0% inhibition)
inhibition at 10 µM (IL6; at 10 μM): 75 to 100%

COc1cccc(-c2cn3nc(-c4nccn4C)nc(N[C@H]4C[C@H](OC)C4)c3c2-c2ccn(C)n2)c1F [Compound 47, 6-(2-Fluoro-3-methoxyphenyl)-N-((1r,3r)-3-methoxycyclobutyl)-2-(1-methyl-1H-imidazol-2-yl)-5-(1-methyl-1H-pyrazol-3-yl)pyrrolo[2,1-f][1,2,4]triazin-4-amine]
% inh of Akt phosphorylation in Panc-1 (Akt phosphorylation): C* (46-84% activation)
% inh of Smad2/3 phosphorylation in Panc-1 [1]: D (D = 76-100% inhibition)
inhibition (IL6): 0%

COc1cc(Nc2nc(-c3nccn3C)nn3cc(-c4cccnc4)c(C)c23)ncn1 [Compound 48, N-(6-Methoxypyrimidin-4-yl)-5-methyl-2-(1-methyl-1H-imidazol-2-yl)-6-(pyridin-3-yl)pyrrolo[2,1-f][1,2,4]triazin-4-amine]
% inh of Akt phosphorylation in Panc-1 (Akt phosphorylation): D* (85-100% activation)
% inh of Smad2/3 phosphorylation in Panc-1 [1]: B (B = 26-45% inhibition)
inhibition (IL6): 1 to 24%

COc1cc(Nc2nc(-c3nccn3C)nn3cc(-c4ccncc4)c(C)c23)ncn1 [Compound 49, N-(6-Methoxypyrimidin-4-yl)-5-methyl-2-(1-methyl-1H-imidazol-2-yl)-6-(pyridin-4-yl)pyrrolo[2,1-f][1,2,4]triazin-4-amine]
% inh of Akt phosphorylation in Panc-1 (Akt phosphorylation): D* (85-100% activation)
% inh of Smad2/3 phosphorylation in Panc-1 [1]: B (B = 26-45% inhibition)
inhibition (IL6): 1 to 24%

COc1cc(-c2cn3nc(-c4nccn4C)nc(Nc4cc(OC)ncn4)c3c2C)ccn1 [Compound 50, 6-(2-Methoxypyridin-4-yl)-N-(6-methoxypyrimidin-4-yl)-5-methyl-2-(1-methyl-1H-imidazol-2-yl)pyrrolo[2,1-f][1,2,4]triazin-4-amine]
% inh of Akt phosphorylation in Panc-1 (Akt phosphorylation): D* (85-100% activation)
% inh of Smad2/3 phosphorylation in Panc-1 [1]: B (B = 26-45% inhibition)
inhibition (IL6): 1 to 24%

COc1cc(Nc2nc(-c3nccn3C)nn3cc(-c4ccn(C(C)C)n4)c(C)c23)n[nH]1 [Compound 51, 6-(1-Isopropyl-1H-pyrazol-3-yl)-N-(5-methoxy-1H-pyrazol-3-yl)-5-methyl-2-(1-methyl-1H-imidazol-2-yl)pyrrolo[2,1-f][1,2,4]triazin-4-amine]
% inh of Akt phosphorylation in Panc-1 (Akt phosphorylation): D* (85-100% activation)
% inh of Smad2/3 phosphorylation in Panc-1 [1]: D (D = 76-100% inhibition)
inhibition (IL6): 50 to 74%

Cc1c(-c2ccn(C(C)C)n2)cn2nc(-c3nccn3C)nc(Nc3ccncc3)c12 [Compound 52, 6-(1-Isopropyl-1H-pyrazol-3-yl)-5-methyl-2-(1-methyl-1H-imidazol-2-yl)-N-(pyridin-4-yl)pyrrolo[2,1-f][1,2,4]triazin-4-amine]
% inh of Akt phosphorylation in Panc-1 (Akt phosphorylation): B (26-49% inhibition)
% inh of Smad2/3 phosphorylation in Panc-1 [1]: D (D = 76-100% inhibition)
inhibition (IL6): 0%

COc1ccnc(Nc2nc(-c3nccn3C)nn3cc(-c4ccn(C(C)C)n4)c(C)c23)n1 [Compound 53, 6-(1-Isopropyl-1H-pyrazol-3-yl)-N-(4-methoxypyrimidin-2-yl)-5-methyl-2-(1-methyl-1H-imidazol-2-yl)pyrrolo[2,1-f][1,2,4]triazin-4-amine]
% inh of Akt phosphorylation in Panc-1 (Akt phosphorylation): A* (1-25% activation)
% inh of Smad2/3 phosphorylation in Panc-1 [1]: B (B = 26-45% inhibition)
inhibition (IL6): 50 to 74%

Cc1c(-c2ccn(C(C)C)n2)cn2nc(-c3nccn3C)nc(Nc3ncccn3)c12 [Compound 54, 6-(1-Isopropyl-1H-pyrazol-3-yl)-5-methyl-2-(1-methyl-1H-imidazol-2-yl)-N-(pyrimidin-2-yl)pyrrolo[2,1-f][1,2,4]triazin-4-amine]
% inh of Akt phosphorylation in Panc-1 (Akt phosphorylation): B* (26-49% activation)
% inh of Smad2/3 phosphorylation in Panc-1 [1]: A (A = 1-25% inhibition)
inhibition (IL6): 25 to 49%

Cc1c(-c2ccn(C(C)C)n2)cn2nc(-c3nccn3C)nc(Nc3ccncn3)c12 [Compound 55, 6-(1-Isopropyl-1H-pyrazol-3-yl)-5-methyl-2-(1-methyl-1H-imidazol-2-yl)-N-(pyrimidin-4-yl)pyrrolo[2,1-f][1,2,4]triazin-4-amine]
% inh of Akt phosphorylation in Panc-1 (Akt phosphorylation): A* (1-25% activation)
% inh of Smad2/3 phosphorylation in Panc-1 [1]: D (D = 76-100% inhibition)
inhibition (IL6): 1 to 24%

COc1cnc(Nc2nc(-c3nccn3C)nn3cc(-c4ccn(C(C)C)n4)c(C)c23)nc1 [Compound 56, 6-(1-Isopropyl-1H-pyrazol-3-yl)-N-(5-methoxypyrimidin-2-yl)-5-methyl-2-(1-methyl-1H-imidazol-2-yl)pyrrolo[2,1-f][1,2,4]triazin-4-amine]
% inh of Akt phosphorylation in Panc-1 (Akt phosphorylation): B* (26-49% activation)
% inh of Smad2/3 phosphorylation in Panc-1 [1]: D* (D* = 76-100% activation)
inhibition (IL6): 25 to 49%

Cc1c(-c2ccn(C(C)C)n2)cn2nc(-c3nccn3C)nc(Nc3ccccn3)c12 [Compound 57, 6-(1-Isopropyl-1H-pyrazol-3-yl)-5-methyl-2-(1-methyl-1H-imidazol-2-yl)-N-(pyridin-2-yl)pyrrolo[2,1-f][1,2,4]triazin-4-amine]
% inh of Akt phosphorylation in Panc-1 (Akt phosphorylation): D* (85-100% activation)
% inh of Smad2/3 phosphorylation in Panc-1 [1]: A* (A* = 1-25% activation)
inhibition (IL6): 1 to 24%

COc1ccnc(Nc2nc(-c3nccn3C)nn3cc(-c4ccn(C(C)C)n4)c(C)c23)c1 [Compound 58, 6-(1-Isopropyl-1H-pyrazol-3-yl)-N-(4-methoxypyridin-2-yl)-5-methyl-2-(1-methyl-1H-imidazol-2-yl)pyrrolo[2,1-f][1,2,4]triazin-4-amine]
% inh of Akt phosphorylation in Panc-1 (Akt phosphorylation): A* (1-25% activation)
% inh of Smad2/3 phosphorylation in Panc-1 [1]: C (C = 46-75% inhibition)
inhibition (IL6): 25 to 49%

Cc1c(-c2ccn(C(C)C)n2)cn2nc(-c3nccn3C)nc(Nc3nnco3)c12 [Compound 59, N-(6-(1-Isopropyl-1H-pyrazol-3-yl)-5-methyl-2-(1-methyl-1H-imidazol-2-yl)pyrrolo[2,1-f][1,2,4]triazin-4-yl)-1,3,4-oxadiazol-2-amine]
% inh of Akt phosphorylation in Panc-1 (Akt phosphorylation): C* (46-84% activation)
% inh of Smad2/3 phosphorylation in Panc-1 [1]: D (D = 76-100% inhibition)
inhibition (IL6): 25 to 49%

Cc1c(-c2ccn(C(C)C)n2)cn2nc(-c3nccn3C)nc(Nc3ncco3)c12 [Compound 60, N-(6-(1-Isopropyl-1H-pyrazol-3-yl)-5-methyl-2-(1-methyl-1H-imidazol-2-yl)pyrrolo[2,1-f][1,2,4]triazin-4-yl)oxazol-2-amine]
% inh of Akt phosphorylation in Panc-1 (Akt phosphorylation): D* (85-100% activation)
% inh of Smad2/3 phosphorylation in Panc-1 [1]: C (C = 46-75% inhibition)
inhibition (IL6): 0%

Cc1c(-c2ccn(C(C)C)n2)cn2nc(-c3nccn3C)nc(Nc3ccn(C)n3)c12 [Compound 61, 6-(1-Isopropyl-1H-pyrazol-3-yl)-5-methyl-2-(1-methyl-1H-imidazol-2-yl)-N-(1-methyl-1H-pyrazol-3-yl)pyrrolo[2,1-f][1,2,4]triazin-4-amine]
% inh of Akt phosphorylation in Panc-1 (Akt phosphorylation): C* (46-84% activation)
% inh of Smad2/3 phosphorylation in Panc-1 [1]: B (B = 26-45% inhibition)
inhibition (IL6): 1 to 24%

Cc1c(-c2ccn(C(C)C)n2)cn2nc(-c3nccn3C)nc(Nc3cnccn3)c12 [Compound 62, 6-(1-Isopropyl-1H-pyrazol-3-yl)-5-methyl-2-(1-methyl-1H-imidazol-2-yl)-N-(pyrazin-2-yl)pyrrolo[2,1-f][1,2,4]triazin-4-amine]
% inh of Akt phosphorylation in Panc-1 (Akt phosphorylation): D* (85-100% activation)
% inh of Smad2/3 phosphorylation in Panc-1 [1]: A* (A* = 1-25% activation)
inhibition (IL6): 25 to 49%

COc1cc(Nc2nc(-c3nccn3C)nn3cc(-c4ccn(C)n4)c(C)c23)ncn1 [Compound 63, N-(6-Methoxypyrimidin-4-yl)-5-methyl-2-(1-methyl-1H-imidazol-2-yl)-6-(1-methyl-1H-pyrazol-3-yl)pyrrolo[2,1-f][1,2,4]triazin-4-amine]
% inh of Akt phosphorylation in Panc-1 (Akt phosphorylation): D* (85-100% activation)
% inh of Smad2/3 phosphorylation in Panc-1 [1]: D* (D* = 76-100% activation)
inhibition (IL6): 1 to 24%

From patent publication US12459951B2, “Compounds that interact with RAS superfamily proteins for treatment of cancers, inflammatory diseases, rasopathies, and fibrotic disease” (SHY Therapeutics, LLC, priority 2022, dated 2025)
